Test results taken from the NIST ThermoML archive (doi:10.1016/j.jct.2005.09.003).

Experiment: xn = mol fraction of the nth substance listed
Conditions: Liquid

CCCCCCCl [1-chlorohexane] + CCCCCCCC
mass density [kg/m3]
Conditions | x2 = 0 | x2 = 0.1016 | x2 = 0.1996 | x2 = 0.3153 | x2 = 0.3948 | x2 = 0.4862 | x2 = 0.5938 | x2 = 0.6966 | x2 = 0.794 | x2 = 0.9001
318.15 K, 39620 kPa | – | – | – | – | – | – | – | – | – | 728.95
328.15 K, 100 kPa | 845.18 | 824.75 | – | 784.31 | 770.08 | 754.25 | 736.27 | 719.76 | 704.68 | 688.86
328.15 K, 2130 kPa | 847.12 | 826.75 | 807.96 | 786.36 | 772.17 | 756.35 | 738.33 | 721.87 | 706.7 | 690.84
328.15 K, 4150 kPa | 849.17 | 828.82 | 810.05 | 788.45 | 774.26 | 758.45 | 740.42 | 723.96 | 708.79 | 692.91
328.15 K, 6180 kPa | 851.16 | 830.83 | 812.05 | 790.48 | 776.28 | 760.49 | 742.45 | 725.98 | 710.81 | 694.93
328.15 K, 8210 kPa | 853.13 | 832.8 | 814.05 | 792.45 | 778.27 | 762.48 | 744.42 | 728 | 712.79 | 696.92
328.15 K, 10230 kPa | 855.02 | 834.72 | 815.97 | 794.38 | 780.21 | 764.41 | 746.38 | 729.93 | 714.74 | 698.84
328.15 K, 11250 kPa | 855.98 | 835.67 | 816.92 | 795.34 | 781.17 | 765.37 | 747.33 | 730.88 | 715.68 | 699.79
328.15 K, 12260 kPa | 856.91 | 836.61 | 817.87 | 796.3 | 782.13 | 766.33 | 748.28 | 731.81 | 716.64 | 700.74
328.15 K, 14290 kPa | 858.76 | 838.48 | 819.73 | 798.16 | 784 | 768.18 | 750.17 | 733.7 | 718.5 | 702.6
328.15 K, 16310 kPa | 860.59 | 840.3 | 821.56 | 799.99 | 785.83 | 770.03 | 752 | 735.52 | 720.32 | 704.39
328.15 K, 18340 kPa | 862.35 | 842.06 | 823.33 | 801.75 | 787.59 | 771.78 | 753.76 | 737.29 | 722.07 | 706.15
328.15 K, 20370 kPa | 864.12 | 843.84 | 825.11 | 803.54 | 789.37 | 773.56 | 755.51 | 739.04 | 723.83 | 707.88
328.15 K, 22390 kPa | 865.82 | 845.55 | 826.81 | 805.24 | 791.08 | 775.27 | 757.24 | 740.74 | 725.52 | 709.57
328.15 K, 24420 kPa | 867.51 | 847.24 | 828.51 | 806.94 | 792.78 | 776.96 | 758.91 | 742.4 | 727.18 | 711.21
328.15 K, 26450 kPa | 869.18 | 848.91 | 830.19 | 808.59 | 794.43 | 778.61 | 760.54 | 744.05 | 728.79 | 712.83
328.15 K, 28470 kPa | 870.8 | 850.52 | 831.8 | 810.22 | 796.05 | 780.22 | 762.15 | 745.64 | 730.38 | 714.38
328.15 K, 29490 kPa | 871.6 | 851.32 | 832.59 | 811.01 | 796.83 | 781.01 | 762.93 | 746.43 | 731.16 | 715.18
328.15 K, 30500 kPa | 872.4 | 852.13 | 833.4 | 811.81 | 797.63 | 781.8 | 763.73 | 747.21 | 731.95 | 715.96
328.15 K, 32530 kPa | 873.95 | 853.71 | 834.95 | 813.36 | 799.19 | 783.35 | 765.25 | 748.74 | 733.44 | 717.46
328.15 K, 34550 kPa | 875.49 | 855.25 | 836.5 | 814.87 | 800.71 | 784.87 | 766.77 | 750.23 | 734.96 | 718.95
328.15 K, 36580 kPa | 877.05 | 856.79 | 838.03 | 816.42 | 802.23 | 786.39 | 768.27 | 751.74 | 736.44 | 720.42
328.15 K, 38600 kPa | 878.53 | 858.28 | 839.51 | 817.9 | 803.7 | 787.85 | 769.73 | 753.2 | 737.86 | 721.85
328.15 K, 39620 kPa | 879.31 | 859.03 | 840.27 | 818.64 | 804.43 | 788.56 | 770.44 | 753.9 | 738.58 | 722.55
